We go through 4 compounds from ChEMBL document CHEMBL4433245, “Discovery of GlyT2 Inhibitors Using Structure-Based Pharmacophore Screening and Selectivity Studies by FEP+ Calculations” (ACS Med Chem Lett, 2019).

Assay [1] deals with Sodium- and chloride-dependent glycine transporter 1 (Mus musculus) (UniProt P28571). The experiment in a line: Inhibition of mouse GlyT1 expressed in porcine aorta […] cells assessed as reduction in [3H]-Glycine uptake incubated for 10 mins at pH 7.4 by scintillation spectroscopy.
Sequence of Sodium- and chloride-dependent glycine transporter 1 (Mus musculus) (P28571 whole entry, looked up): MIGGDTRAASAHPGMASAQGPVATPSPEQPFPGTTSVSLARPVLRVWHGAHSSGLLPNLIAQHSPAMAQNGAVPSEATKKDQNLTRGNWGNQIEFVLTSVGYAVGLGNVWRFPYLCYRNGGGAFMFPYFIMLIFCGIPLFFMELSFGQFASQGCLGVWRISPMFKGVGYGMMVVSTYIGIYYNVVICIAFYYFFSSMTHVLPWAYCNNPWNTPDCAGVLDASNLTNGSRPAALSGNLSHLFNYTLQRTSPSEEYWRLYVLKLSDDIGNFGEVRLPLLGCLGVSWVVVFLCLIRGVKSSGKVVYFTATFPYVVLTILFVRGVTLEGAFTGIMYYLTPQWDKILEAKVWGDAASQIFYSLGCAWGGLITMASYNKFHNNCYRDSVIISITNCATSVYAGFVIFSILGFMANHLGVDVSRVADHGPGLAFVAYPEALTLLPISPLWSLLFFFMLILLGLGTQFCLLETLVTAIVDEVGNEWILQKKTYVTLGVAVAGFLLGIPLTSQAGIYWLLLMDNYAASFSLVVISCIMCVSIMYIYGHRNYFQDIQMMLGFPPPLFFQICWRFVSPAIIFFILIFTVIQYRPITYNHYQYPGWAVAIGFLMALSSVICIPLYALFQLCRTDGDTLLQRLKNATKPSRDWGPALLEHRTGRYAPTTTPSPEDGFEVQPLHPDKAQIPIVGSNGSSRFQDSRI
Assay [2] shares this target. Put plainly: Inhibition of mouse GlyT1 expressed in porcine aorta […] cells assessed as reduction in [3H]-Glycine uptake incubated for 10 mins at pH 7.4 by scintillation spectroscopy relative to untreated control.

Bounds are passed on as bounds.

One may read the IC50 as the concentration at which inhibition is half-maximal. As a reminder, the inhibition is the relative decrease from the control value, in per cent.

On to `O=C(O)CCCCSc1ncnc2[nH]c(=O)[nH]c12`, for which, in assay [1], the IC50 is more than 200 µM.

With `O=c1[nH]c2c(c(=O)[nH]1)CCN(Cc1ccccc1)C2`, the IC50 in assay [1] was more than 200 µM.

For `O=C(O)CCSc1[nH]c(=O)nc2[nH]c(=O)[nH]c12`, the 50% inhibitory concentration (IC50) in assay [1] was more than 200 µM.

In the case of `CN(CC[C@@H](Oc1ccc(-c2ccccc2)cc1)c1ccc(F)cc1)CC(=O)O`, the inhibition in assay [2] came to 80%.
